Source: patent US12723063B2, “GIPR-agonist compounds” (Eli Lilly and Company, priority 2019, dated 2026)
*1 amine or outer side, *2 acyl side, *3 side chain or, on linkers, in order; H or OH if unused. Where a SMILES comes first, the peptide text is derived from it. Side-chain parts run from the residue outwards. [ ]: non-standard residue; d: D form. The star is where a group is joined. C20 diacid = O=C(O)CCCCCCCCCCCCCCCCCCC(=O)*; αMePhe(2-F) = C[C@](N)(Cc1ccccc1F)C(=O)O; γGlu = O=C(O)[C@H](CCC(=O)[*:2])N[*:1]; αMeF = C[C@](N)(Cc1ccccc1)C(=O)O; 4Pal = N[C@@H](Cc1ccncc1)C(=O)O; αMeL = CC(C)C[C@](C)(N)C(=O)O; AEEA = NCCOCCOCC(=O)O; Aib = CC(C)(N)C(=O)O

Tests used:
Assay in all cases: cAMP functional assay (HTRF) in HEK293 cells in presence of 0.1% casein
Type in all cases: cell-based
[1] = target: T1, human GLP-1 receptor (GLP-1R) (Homo sapiens, UniProt P43220); conditions: HEK293 cells expressing human GLP-1R, geometric mean, read-out: hGLP1R cAMP Rel EC50 nM (SEM, n)
T1 construct: expressed in transfected cells; host or cells: HEK293

[2] = target: T2, human glucose-dependent insulinotropic peptide receptor (GIPR) (Homo sapiens, UniProt P48546); conditions: HEK293 cells expressing human GIPR, geometric mean, read-out: hGIPR cAMP Rel EC50 nM (SEM, n)
T2 construct: expressed in transfected cells; host or cells: HEK293
T2 sequence (P48546 22-466): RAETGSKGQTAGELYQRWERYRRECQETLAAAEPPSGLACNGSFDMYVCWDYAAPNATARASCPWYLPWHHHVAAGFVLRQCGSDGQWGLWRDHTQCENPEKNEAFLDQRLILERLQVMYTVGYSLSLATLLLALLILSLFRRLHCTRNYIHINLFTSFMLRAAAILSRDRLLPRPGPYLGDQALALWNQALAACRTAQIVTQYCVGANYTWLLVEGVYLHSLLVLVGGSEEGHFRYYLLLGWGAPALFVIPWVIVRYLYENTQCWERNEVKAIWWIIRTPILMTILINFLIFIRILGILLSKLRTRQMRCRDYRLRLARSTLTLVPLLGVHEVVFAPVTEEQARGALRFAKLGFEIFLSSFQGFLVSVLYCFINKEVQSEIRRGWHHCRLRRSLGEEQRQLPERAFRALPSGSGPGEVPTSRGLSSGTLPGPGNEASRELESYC

[3] = target: T3, human glucagon receptor (GcgR) (Homo sapiens, UniProt P47871); conditions: HEK293 cells expressing human GcgR, geometric mean, read-out: hGcgR cAMP Rel EC50 nM (SEM, n)
T3 construct: expressed in transfected cells; host or cells: HEK293
T3 sequence (P47871 26-477): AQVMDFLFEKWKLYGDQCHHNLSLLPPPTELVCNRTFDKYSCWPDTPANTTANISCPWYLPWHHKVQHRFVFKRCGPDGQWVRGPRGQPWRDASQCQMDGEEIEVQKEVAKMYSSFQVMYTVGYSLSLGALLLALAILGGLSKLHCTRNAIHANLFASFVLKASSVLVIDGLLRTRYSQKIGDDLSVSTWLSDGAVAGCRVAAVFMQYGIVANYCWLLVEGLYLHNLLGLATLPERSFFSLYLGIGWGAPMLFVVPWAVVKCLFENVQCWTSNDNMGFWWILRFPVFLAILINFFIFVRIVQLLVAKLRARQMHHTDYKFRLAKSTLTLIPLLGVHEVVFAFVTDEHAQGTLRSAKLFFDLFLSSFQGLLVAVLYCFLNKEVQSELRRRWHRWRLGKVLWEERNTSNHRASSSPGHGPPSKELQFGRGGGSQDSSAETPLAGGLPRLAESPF

T1 sequence (P43220 24-463): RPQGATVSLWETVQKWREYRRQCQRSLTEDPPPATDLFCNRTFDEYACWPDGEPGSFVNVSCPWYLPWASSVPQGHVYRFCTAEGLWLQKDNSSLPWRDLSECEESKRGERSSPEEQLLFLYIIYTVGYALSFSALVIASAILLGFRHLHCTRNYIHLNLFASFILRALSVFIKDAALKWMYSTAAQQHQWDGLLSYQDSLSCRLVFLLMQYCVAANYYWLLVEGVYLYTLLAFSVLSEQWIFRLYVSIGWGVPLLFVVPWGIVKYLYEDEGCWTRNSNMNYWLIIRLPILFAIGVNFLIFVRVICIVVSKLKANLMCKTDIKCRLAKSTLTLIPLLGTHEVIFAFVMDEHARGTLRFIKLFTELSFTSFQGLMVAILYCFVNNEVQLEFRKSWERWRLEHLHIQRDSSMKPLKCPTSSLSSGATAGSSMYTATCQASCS

Compound	EC50 [1] [nM]	EC50 [2] [nM]	EC50 [3] [nM]
CC[C@H](C)[C@H](NC(=O)[C@H](CO)NC(=O)[C@H](Cc1ccc(O)cc1)NC(=O)[C@H](CC(=O)O)NC(=O)[C@H](CO)NC(=O)[C@@H](NC(=O)[C@](C)(Cc1ccccc1F)NC(=O)[C@@H](NC(=O)CNC(=O)[C@H](CCC(=O)O)NC(=O)C(C)(C)NC(=O)[C@@H](N)Cc1ccc(O)cc1)[C@@H](C)O)[C@@H](C)CC)C(=O)N[C@@H](C)C(=O)N[C@@H](CC(C)C)C(=O)N[C@@H](CC(=O)O)C(=O)N[C@@H](CCCCN)C(=O)N[C@@H](CCCCNC(=O)COCCOCCNC(=O)COCCOCCNC(=O)CC[C@H](NC(=O)CCCCCCCCCCCCCCCCCCC(=O)O)C(=O)O)C(=O)N[C@@H](Cc1c[nH]cn1)C(=O)N[C@@H](CCC(N)=O)C(=O)NC(C)(C)C(=O)N[C@@H](CC(=O)O)C(=O)N[C@@H](Cc1ccccc1)C(=O)N[C@H](C(=O)N[C@@H](CCC(=O)O)C(=O)N[C@@H](Cc1ccc(O)cc1)C(=O)N[C@@H](CC(C)C)C(=O)N[C@@H](CC(C)C)C(=O)N[C@@H](CCC(=O)O)C(=O)N[C@H](C(=O)NCC(=O)N1CCC[C@H]1C(=O)N[C@@H](CO)C(=O)N[C@@H](CO)C(=O)NCC(=O)N[C@@H](C)C(=O)N1CCC[C@H]1C(=O)N1CCC[C@H]1C(=O)N1CCC[C@H]1C(=O)N[C@@H](CO)C(N)=O)[C@@H](C)O)C(C)C [Example 36] (H-Y[Aib]EGT[αMePhe(2-F)]ISDYSIALDKK([AEEA-AEEA-γGlu-C20 diacid])HQ[Aib]DFVEYLLETGPSSGAPPPS-NH2)	1080	0.0543	> 5000
CC[C@H](C)[C@H](NC(=O)[C@H](CO)NC(=O)[C@H](Cc1ccc(O)cc1)NC(=O)[C@H](CC(=O)O)NC(=O)[C@H](CO)NC(=O)[C@@H](NC(=O)[C@](C)(Cc1ccccc1)NC(=O)[C@@H](NC(=O)CNC(=O)[C@H](CCC(=O)O)NC(=O)C(C)(C)NC(=O)[C@@H](N)Cc1ccc(O)cc1)[C@@H](C)O)[C@@H](C)CC)C(=O)N[C@@H](C)C(=O)N[C@@H](CC(C)C)C(=O)N[C@@H](CC(=O)O)C(=O)N[C@@H](CCCCN)C(=O)N[C@@H](CCCCNC(=O)COCCOCCNC(=O)COCCOCCNC(=O)CC[C@H](NC(=O)CCCCCCCCCCCCCCCCCCC(=O)O)C(=O)O)C(=O)N[C@@H](Cc1c[nH]cn1)C(=O)N[C@@H](CCC(N)=O)C(=O)NC(C)(C)C(=O)N[C@@H](CC(=O)O)C(=O)N[C@@H](Cc1ccccc1)C(=O)N[C@H](C(=O)N[C@@H](CCC(=O)O)C(=O)N[C@@H](Cc1ccncc1)C(=O)N[C@@H](CC(C)C)C(=O)N[C@@H](CC(C)C)C(=O)N[C@@H](CCC(=O)O)C(=O)N[C@@H](CCC(N)=O)C(=O)NCC(=O)N1CCC[C@H]1C(=O)N[C@@H](CO)C(=O)N[C@@H](CO)C(=O)NCC(=O)N[C@@H](C)C(=O)N1CCC[C@H]1C(=O)N1CCC[C@H]1C(=O)N1CCC[C@H]1C(=O)N[C@@H](CO)C(N)=O)C(C)C [Example 42] (H-Y[Aib]EGT[αMeF]ISDYSIALDKK([AEEA-AEEA-γGlu-C20 diacid])HQ[Aib]DFVE[4Pal]LLEQGPSSGAPPPS-NH2)	815	0.0091	> 5000
CC[C@H](C)[C@H](NC(=O)[C@H](CO)NC(=O)[C@H](Cc1ccc(O)cc1)NC(=O)[C@H](CC(=O)O)NC(=O)[C@H](CO)NC(=O)[C@@H](NC(=O)[C@](C)(Cc1ccccc1F)NC(=O)[C@@H](NC(=O)CNC(=O)[C@H](CCC(=O)O)NC(=O)[C@H](C)NC(=O)[C@@H](Cc1ccc(O)cc1)NC(C)=O)[C@@H](C)O)[C@@H](C)CC)C(=O)N[C@@H](C)C(=O)N[C@@H](CC(C)C)C(=O)N[C@@H](CC(=O)O)C(=O)N[C@@H](CCCCN)C(=O)N[C@@H](CCCCNC(=O)COCCOCCNC(=O)COCCOCCNC(=O)CC[C@H](NC(=O)CCCCCCCCCCCCCCCCCCC(=O)O)C(=O)O)C(=O)N[C@@H](Cc1c[nH]cn1)C(=O)N[C@@H](CCC(N)=O)C(=O)NC(C)(C)C(=O)N[C@@H](CCC(=O)O)C(=O)N[C@@H](Cc1ccccc1)C(=O)N[C@H](C(=O)N[C@@H](CC(N)=O)C(=O)N[C@@H](Cc1ccc(O)cc1)C(=O)N[C@@H](CC(C)C)C(=O)N[C@@H](CC(C)C)C(=O)N[C@@H](CCC(=O)O)C(=O)NCC(=O)NCC(=O)N1CCC[C@H]1C(=O)N[C@@H](CO)C(=O)N[C@@H](CO)C(=O)NCC(=O)N[C@@H](C)C(=O)N1CCC[C@H]1C(=O)N1CCC[C@H]1C(=O)N1CCC[C@H]1C(=O)N[C@@H](CO)C(N)=O)C(C)C [Example 33] (Ac-[dY]AEGT[αMePhe(2-F)]ISDYSIALDKK([AEEA-AEEA-γGlu-C20 diacid])HQ[Aib]EFVNYLLEGGPSSGAPPPS-NH2)	> 5000	0.0551	> 5000
CC[C@H](C)[C@H](NC(=O)[C@H](CO)NC(=O)[C@H](Cc1ccc(O)cc1)NC(=O)[C@H](CC(=O)O)NC(=O)[C@H](CO)NC(=O)[C@@H](NC(=O)[C@](C)(CC(C)C)NC(=O)[C@@H](NC(=O)CNC(=O)[C@H](CCC(=O)O)NC(=O)C(C)(C)NC(=O)[C@@H](N)Cc1ccc(O)cc1)[C@@H](C)O)[C@@H](C)CC)C(=O)N[C@@H](C)C(=O)N[C@@H](CC(C)C)C(=O)N[C@@H](CC(=O)O)C(=O)N[C@@H](CCCCN)C(=O)N[C@@H](CCCCNC(=O)COCCOCCNC(=O)COCCOCCNC(=O)CC[C@H](NC(=O)CCCCCCCCCCCCCCCCCCC(=O)O)C(=O)O)C(=O)N[C@@H](Cc1c[nH]cn1)C(=O)N[C@@H](CCC(N)=O)C(=O)NC(C)(C)C(=O)N[C@@H](CCC(=O)O)C(=O)N[C@@H](Cc1ccccc1)C(=O)N[C@H](C(=O)N[C@@H](CC(N)=O)C(=O)N[C@@H](Cc1ccc(O)cc1)C(=O)N[C@@H](CC(C)C)C(=O)N[C@@H](CC(C)C)C(=O)N[C@@H](C)C(=O)N[C@H](C(=O)NCC(=O)N1CCC[C@H]1C(=O)N[C@@H](CO)C(=O)N[C@@H](CO)C(=O)NCC(=O)N[C@@H](C)C(=O)N1CCC[C@H]1C(=O)N1CCC[C@H]1C(=O)N1CCC[C@H]1C(=O)N[C@@H](CO)C(N)=O)[C@@H](C)O)C(C)C [Example 35] (H-Y[Aib]EGT[αMeL]ISDYSIALDKK([AEEA-AEEA-γGlu-C20 diacid])HQ[Aib]EFVNYLLATGPSSGAPPPS-NH2)	> 5000	0.0125	> 5000
CC[C@H](C)[C@H](NC(=O)[C@H](Cc1ccccc1)NC(=O)[C@@H](NC(=O)CNC(=O)[C@H](CCC(=O)O)NC(=O)C(C)(C)NC(=O)[C@@H](N)Cc1ccc(O)cc1)[C@@H](C)O)C(=O)N[C@@H](CO)C(=O)N[C@@H](CC(=O)O)C(=O)N[C@@H](Cc1ccc(O)cc1)C(=O)N[C@@H](CO)C(=O)N[C@H](C(=O)N[C@@](C)(CC(C)C)C(=O)N[C@@H](CC(C)C)C(=O)N[C@@H](CC(=O)O)C(=O)N[C@@H](CCCCN)C(=O)N[C@@H](CCCCNC(=O)COCCOCCNC(=O)COCCOCCNC(=O)CC[C@H](NC(=O)CCCCCCCCCCCCCCCCCCC(=O)O)C(=O)O)C(=O)N[C@@H](Cc1c[nH]cn1)C(=O)N[C@@H](CCC(N)=O)C(=O)NC(C)(C)C(=O)N[C@@H](CC(=O)O)C(=O)N[C@@H](Cc1ccccc1)C(=O)N[C@H](C(=O)N[C@@H](CCC(=O)O)C(=O)N[C@@H](Cc1ccncc1)C(=O)N[C@@H](CC(C)C)C(=O)N[C@@H](CC(C)C)C(=O)N[C@@H](CCC(=O)O)C(=O)N[C@@H](CCC(N)=O)C(=O)NCC(=O)N1CCC[C@H]1C(=O)N[C@@H](CO)C(=O)N[C@@H](CO)C(=O)NCC(=O)N[C@@H](C)C(=O)N1CCC[C@H]1C(=O)N1CCC[C@H]1C(=O)N1CCC[C@H]1C(=O)N[C@@H](CO)C(N)=O)C(C)C)[C@@H](C)CC [Example 46] (H-Y[Aib]EGTFISDYSI[αMeL]LDKK([AEEA-AEEA-γGlu-C20 diacid])HQ[Aib]DFVE[4Pal]LLEQGPSSGAPPPS-NH2)	> 5000	0.0294	863
